Assay results published in patent publication US9381246B2, “Cancer therapy” (TriAct Therapeutics, Inc., priority 2013, dated 2016).
“Also recorded” adds a separate entry of the source.

Experiments:
IGF1R [1] = molecular target: T1, IGF1R (Homo sapiens, UniProt P08069); assay: ATP binding competition assay
Description: Next, competition with ATP was determined directly by employing an assay previously validated to quantify the Km for small molecule kinase inhibitors compete for ATP binding to various kinases (Goldstein et al. 2008).
Target sequence in this assay (P08069 999-1274 limits assumed): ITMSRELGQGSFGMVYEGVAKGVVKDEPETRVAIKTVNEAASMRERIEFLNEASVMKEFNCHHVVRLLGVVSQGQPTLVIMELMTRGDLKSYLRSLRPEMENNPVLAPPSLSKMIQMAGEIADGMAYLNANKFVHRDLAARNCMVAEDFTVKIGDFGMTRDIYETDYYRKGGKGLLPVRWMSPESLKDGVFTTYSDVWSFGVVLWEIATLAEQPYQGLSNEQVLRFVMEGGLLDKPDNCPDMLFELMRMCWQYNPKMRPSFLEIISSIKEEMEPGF

IGF1R [2] = molecular target: T1, IGF1R; assay: IGF1R kinase inhibition (FIG. 7); type: biochemical; conditions: data from 3 sources
Target sequence in this assay (P08069 31-1367): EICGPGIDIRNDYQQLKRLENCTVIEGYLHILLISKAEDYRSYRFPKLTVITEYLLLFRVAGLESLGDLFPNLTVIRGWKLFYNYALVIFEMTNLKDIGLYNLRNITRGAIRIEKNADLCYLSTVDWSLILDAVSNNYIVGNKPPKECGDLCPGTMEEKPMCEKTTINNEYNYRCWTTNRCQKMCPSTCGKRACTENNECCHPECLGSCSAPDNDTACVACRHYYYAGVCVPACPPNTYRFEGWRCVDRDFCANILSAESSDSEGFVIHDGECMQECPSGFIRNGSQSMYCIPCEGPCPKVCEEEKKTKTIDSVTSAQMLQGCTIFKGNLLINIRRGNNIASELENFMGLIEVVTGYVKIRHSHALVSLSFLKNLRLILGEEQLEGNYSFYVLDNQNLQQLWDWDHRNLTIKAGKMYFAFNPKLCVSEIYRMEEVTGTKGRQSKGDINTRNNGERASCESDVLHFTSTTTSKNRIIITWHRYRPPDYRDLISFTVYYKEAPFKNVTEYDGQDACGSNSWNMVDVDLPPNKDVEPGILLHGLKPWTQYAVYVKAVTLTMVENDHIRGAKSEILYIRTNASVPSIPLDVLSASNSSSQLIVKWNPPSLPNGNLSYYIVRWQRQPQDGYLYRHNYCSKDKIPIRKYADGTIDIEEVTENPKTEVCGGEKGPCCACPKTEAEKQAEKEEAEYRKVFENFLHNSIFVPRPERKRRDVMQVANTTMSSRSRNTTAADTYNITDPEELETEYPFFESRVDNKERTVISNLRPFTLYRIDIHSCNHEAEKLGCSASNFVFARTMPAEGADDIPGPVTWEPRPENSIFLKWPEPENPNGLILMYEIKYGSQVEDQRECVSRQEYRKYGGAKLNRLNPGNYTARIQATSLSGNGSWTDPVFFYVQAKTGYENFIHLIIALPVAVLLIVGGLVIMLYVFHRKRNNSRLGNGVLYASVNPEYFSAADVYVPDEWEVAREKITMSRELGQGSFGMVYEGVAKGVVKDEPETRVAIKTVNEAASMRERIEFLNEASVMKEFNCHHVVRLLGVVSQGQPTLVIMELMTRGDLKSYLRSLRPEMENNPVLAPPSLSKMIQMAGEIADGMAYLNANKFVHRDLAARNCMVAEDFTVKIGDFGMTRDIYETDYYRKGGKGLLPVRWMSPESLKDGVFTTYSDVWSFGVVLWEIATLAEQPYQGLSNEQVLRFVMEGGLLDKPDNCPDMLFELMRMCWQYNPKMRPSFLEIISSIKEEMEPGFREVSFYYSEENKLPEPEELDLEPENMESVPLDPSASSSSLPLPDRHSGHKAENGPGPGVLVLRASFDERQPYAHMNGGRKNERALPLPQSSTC

EGFR [3] = molecular target: EGFR (Homo sapiens, UniProt P00533); assay: EGFR kinase inhibition / substrate phosphorylation (FIG. 6, 7); type: biochemical
Chain of EGFR (Homo sapiens, UniProt P00533) (P00533 25-1210): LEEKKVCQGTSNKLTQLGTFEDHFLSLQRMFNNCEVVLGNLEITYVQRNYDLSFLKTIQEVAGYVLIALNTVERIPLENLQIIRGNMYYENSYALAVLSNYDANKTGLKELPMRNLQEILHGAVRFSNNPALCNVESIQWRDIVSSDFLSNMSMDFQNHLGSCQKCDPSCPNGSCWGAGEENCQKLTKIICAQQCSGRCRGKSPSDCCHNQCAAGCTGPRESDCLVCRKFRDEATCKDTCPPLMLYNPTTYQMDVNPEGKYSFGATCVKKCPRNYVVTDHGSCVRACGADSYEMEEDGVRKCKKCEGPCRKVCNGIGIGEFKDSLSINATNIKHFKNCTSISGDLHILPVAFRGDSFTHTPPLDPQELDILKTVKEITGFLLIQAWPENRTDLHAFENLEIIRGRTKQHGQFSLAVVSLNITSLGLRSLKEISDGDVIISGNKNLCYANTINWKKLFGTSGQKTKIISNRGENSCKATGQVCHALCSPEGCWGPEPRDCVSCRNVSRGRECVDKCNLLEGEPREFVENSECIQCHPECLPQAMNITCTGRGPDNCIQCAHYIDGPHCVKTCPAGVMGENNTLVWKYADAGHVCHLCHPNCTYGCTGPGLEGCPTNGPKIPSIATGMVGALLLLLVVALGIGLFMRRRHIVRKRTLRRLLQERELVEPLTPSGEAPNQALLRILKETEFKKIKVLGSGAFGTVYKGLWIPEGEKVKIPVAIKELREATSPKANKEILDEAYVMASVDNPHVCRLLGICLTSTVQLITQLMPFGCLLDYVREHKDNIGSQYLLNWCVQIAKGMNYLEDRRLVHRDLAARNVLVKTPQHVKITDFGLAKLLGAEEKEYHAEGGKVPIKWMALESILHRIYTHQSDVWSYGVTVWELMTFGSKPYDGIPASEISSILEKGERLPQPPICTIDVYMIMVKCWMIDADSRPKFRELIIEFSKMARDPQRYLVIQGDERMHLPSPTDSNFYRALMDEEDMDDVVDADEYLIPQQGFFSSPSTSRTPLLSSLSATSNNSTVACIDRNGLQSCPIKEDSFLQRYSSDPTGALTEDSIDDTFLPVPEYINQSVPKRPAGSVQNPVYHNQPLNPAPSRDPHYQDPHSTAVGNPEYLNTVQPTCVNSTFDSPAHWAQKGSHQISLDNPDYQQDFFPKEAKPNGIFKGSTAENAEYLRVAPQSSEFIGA

c-met = c-met (Homo sapiens, UniProt P08581); assay: c-met kinase inhibition (FIG. 8); type: biochemical; conditions: data from 3 sources
KDR (VEGFR2) = KDR (VEGFR2) (Homo sapiens, UniProt P35968); assay: KDR (VEGFR2) kinase inhibition; type: biochemical; conditions: data from 3 sources
Excerpt: The inhibition of these targets appears to be via a mechanism of action that is distinct from approved tyrosine kinase inhibitors (TKIs).

IGF-IR = assay: Total protein levels over time-course (FIG. 9); type: cell-based; conditions: 2, 4, 8 and 24 hours after treatment, compared to control
EGFR [4] = assay: Total protein levels over time-course (FIG. 9); type: cell-based; conditions: 2, 4, 8 and 24 hours after treatment, compared to control
HER2 = assay: Total protein levels over time-course (FIG. 9); type: cell-based; conditions: 2, 4, 8 and 24 hours after treatment, compared to control
Met = assay: Total protein levels over time-course (FIG. 9); type: cell-based; conditions: 2, 4, 8 and 24 hours after treatment, compared to control
H1975 NSCLC cells = assay: Soft agar colony formation; type: cell-based; conditions: H1975, Iressa®-resistant NSCLC cells (T790M), 11 days
Description: FIG. 10. […] Colony formation was determined and results reported normalized to control values as illustrated in FIG. 10.
Colony formation was determined and results reported normalized to control values as illustrated in FIG. 10.

[5] = tested on: Tarceva® resistant cell lines (Kras mutants, EGFR mutants, T790M mutation); assay: Growth of Tarceva resistant cell lines (FIG. 11); type: cell-based; conditions: growth compared to untreated cells
Excerpt: FIG. 11. […] Growth is shown on the y axis compared to untreated cells. A description of the mutations in the cell lines are identified below in Table 1.

[6] = tested on: Additional NSCLC cell lines; assay: Growth of additional NSCLC cell lines (FIG. 12); type: cell-based; conditions: growth compared to untreated cells
Excerpt: FIG. 12. […] Growth is shown on the y axis compared to untreated cells.

NSCLC xenograft = NSCLC xenograft tumor growth (FIG. 16); type: in vivo; conditions: 3 weeks post-tumor challenge
Excerpt: FIG. 16. […] Tumor volume is shown (y axis) at […], 2.5 and 3 weeks post tumor challenge (x axis).

breast xenograft = assay: Breast xenograft tumor growth (FIG. 17); type: in vivo
Excerpt: FIG. 17. […] Tumor volume is shown (y axis) at various time days post tumor challenge (x axis).

pancreatic xenograft = assay: Pancreatic xenograft tumor growth (FIG. 18); type: in vivo
Excerpt: FIG. 18. […] Tumor volume is shown (y axis) at various time days post tumor challenge (x axis).

[7] = tested on: second pancreatic xenograft; assay: Second pancreatic xenograft tumor growth (FIG. 19); type: in vivo
Excerpt: FIG. 19. […] Tumor volume is shown (y axis) at various time days post tumor challenge (x axis).

xenografts of Table 3 = assay: Efficacy in the xenografts of Table 3; type: in vivo; conditions: NCI-H209, AsPC-1, HPAC, SW850, MDA-MB435, Her-2 over expressing breast, LoVo, C4-I, neuroblastoma, NCI-H1264
Beagle dogs [8] = assay: Multi-dose oral toxicity, dogs; type: in vivo, dog
Description: A dog 28-day multi-dose toxicology assessment was also conducted.

Sprague Dawley rats = assay: 28-day multi-dose oral toxicity, rats; type: in vivo, rat
Description: A rat 28-day multi-dose toxicology assessment was conducted at 15, 150, or 500 mg/kg/day.

Beagle dogs [9] = assay: Multi-dose toxicity (dose escalation), dogs; type: in vivo
[10] = Phase 1b and 2a clinical data; type: in vivo
Excerpt: It provides a competitive advantage over previously described compounds in that the present inventors have identified a novel proposed mechanism of action (MOA), which has been market validated (EGFR & cMet) and clinically validated (IGFR). […] Dose selection has also been determined.

[11] = tested on: New Zealand white rabbits; conditions: rabbit, in vivo, po, 14 days
in vivo [12] = conditions: CR: 1CD BR, rat, po
in vivo [13] = conditions: New Zealand white, rabbit, po
IGF1R [14] = molecular target: T1, IGF1R; assay: IGF-1R tyrosine kinase assay with poly Glu4:Tyr1 (PGT) substrate, Lineweaver-Burke analysis; type: biochemical; design: made in house; host or cells: CHO-IGFR cells
Description: FIG. 1. […] Tyrosine kinase substrate Glu4: Tyr1 was bound to 96 well plates. […] Phosphorylation of substrate was determined by anti-phosphotyrosine ELISA**.
A Lineweaver-Burke analysis was used to calculate Km and Vmax for this reaction (FIG. 1).
Soluble IGF-1R, partially purified from CHO-IGFR cells were incubated with 10 nM IGF-1 in Kinase Buffer (50 mM, pH 7.4, 150 mM NaCl, 0.1% Triton X-100, 0.1% gelatin, 5 mM MnCl2, 8 mM MgCl2, and 1 mM PMSF) for 1 hr at room temperature (RT). […] Labeled ^32P-ATP (20 μM) was added in the presence of varying concentrations of the tyrosine kinase substrate poly Glu4:Tyr1 (PGT) (0.005 to 4 mg/ml). The reaction was stopped after 30 min at 22° C. by blotting 40 μl of the reaction mixture onto Whatman 3 MM papers. Filter papers were air dried and then subjected to the following washing protocol in 10% TCA with 10 mM Na4P2O7: 15 min at 4° C., 15 min at 20° C., 5 min boiling, 5 min boiling, followed by a short rinse with acetone. The filter papers were then allowed to air dry completely. ^32P incorporation into the substrate was determined by liquid scintillation counting.
Target sequence in this assay (P08069 741-1367 limits assumed): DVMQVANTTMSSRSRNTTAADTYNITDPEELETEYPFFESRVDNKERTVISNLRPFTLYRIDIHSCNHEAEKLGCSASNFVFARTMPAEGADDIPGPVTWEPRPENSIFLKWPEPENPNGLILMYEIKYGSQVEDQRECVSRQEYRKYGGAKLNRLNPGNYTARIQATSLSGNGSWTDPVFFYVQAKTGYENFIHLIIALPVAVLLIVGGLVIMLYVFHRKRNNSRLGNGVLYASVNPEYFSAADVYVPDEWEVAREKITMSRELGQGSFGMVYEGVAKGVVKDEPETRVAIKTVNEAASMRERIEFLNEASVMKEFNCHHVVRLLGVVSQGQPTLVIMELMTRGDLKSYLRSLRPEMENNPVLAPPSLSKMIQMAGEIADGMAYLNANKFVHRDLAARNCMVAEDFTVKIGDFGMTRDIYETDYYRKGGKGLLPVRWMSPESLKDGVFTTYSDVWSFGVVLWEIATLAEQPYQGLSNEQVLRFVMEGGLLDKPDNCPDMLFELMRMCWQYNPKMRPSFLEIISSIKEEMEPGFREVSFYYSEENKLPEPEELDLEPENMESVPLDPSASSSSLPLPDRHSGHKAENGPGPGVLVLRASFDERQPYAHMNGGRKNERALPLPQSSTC
Target sequence in this assay (P08069 31-736 partner limits assumed): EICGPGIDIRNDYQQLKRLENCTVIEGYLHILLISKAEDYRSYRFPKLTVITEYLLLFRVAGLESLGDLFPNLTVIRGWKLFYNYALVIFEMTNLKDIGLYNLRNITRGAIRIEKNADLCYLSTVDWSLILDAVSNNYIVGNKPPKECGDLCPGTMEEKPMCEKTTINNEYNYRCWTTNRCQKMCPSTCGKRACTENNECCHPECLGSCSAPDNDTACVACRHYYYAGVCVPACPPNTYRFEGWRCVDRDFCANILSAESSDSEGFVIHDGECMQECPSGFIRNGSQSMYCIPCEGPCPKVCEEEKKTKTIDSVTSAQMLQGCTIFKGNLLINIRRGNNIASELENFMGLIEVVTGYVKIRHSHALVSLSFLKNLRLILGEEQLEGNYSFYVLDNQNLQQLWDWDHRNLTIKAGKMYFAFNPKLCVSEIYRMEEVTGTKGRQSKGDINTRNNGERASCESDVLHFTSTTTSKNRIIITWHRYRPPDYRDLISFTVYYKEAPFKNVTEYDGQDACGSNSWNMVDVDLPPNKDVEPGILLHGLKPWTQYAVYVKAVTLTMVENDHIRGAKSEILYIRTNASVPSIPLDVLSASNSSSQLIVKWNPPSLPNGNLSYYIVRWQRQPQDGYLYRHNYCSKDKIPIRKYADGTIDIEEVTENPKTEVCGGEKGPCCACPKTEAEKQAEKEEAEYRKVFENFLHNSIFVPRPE
Target sequence in this assay (P05019 49-118 partner limits assumed): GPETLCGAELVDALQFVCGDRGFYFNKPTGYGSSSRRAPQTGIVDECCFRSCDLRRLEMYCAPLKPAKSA

[15] = dog 28-day multi-dose toxicology assessment

## CC(Cc1ccc(O)c(O)c1)C(C)Cc1ccc(O)c(O)c1 (centres unmarked) [NDGA, nordihydroguaiaretic acid]
IGF1R [1]; 30 μM NDGA
  Amount of ATP bound to IGF-1R: unchanged
IGF1R [1]; any concentration of NDGA up to 100 μM
  Interference with binding of a labeled ATP analog to recombinant IGF-1R: did not interfere; also recorded: does not interfere
IGF1R [2]
  Inhibition of IGF1R: inhibition
EGFR [3]
  Inhibition of EGFR / substrate phosphorylation: inhibits substrate phosphorylation; also recorded: inhibition
c-met
  Inhibition of cMet: inhibition
KDR (VEGFR2)
  Inhibition of KDR (VEGFR2): inhibition
IGF-IR
  Total protein level of IGF-IR: reduction in total protein levels
EGFR [4]
  Total protein level of EGFR: reduction in total protein levels
HER2
  Total protein level of HER2: reduction in total protein levels
Met
  Total protein level of Met: reduction in total protein levels
H1975 NSCLC cells
  Activity on colony formation in soft agar: active
[5]
  Sensitivity of growth to NDGA: sensitive
[6]
  Sensitivity of growth to NDGA: sensitive
NSCLC xenograft
  Tumor growth (tumor volume) compared to control: inhibit tumor growth
Breast xenograft
  Tumor growth (tumor volume) compared to control: inhibited growth
Pancreatic xenograft
  Tumor growth (tumor volume) compared to control: inhibited growth
[7]
  Tumor growth (tumor volume) compared to control: inhibited growth
Xenografts of Table 3
  Efficacy in xenografts: efficacy was shown
Beagle dogs [8]; [15]
  Necropsy findings: intestinal mucosal reddening
  No observable effect level (NOEL): 60 mg/kg/day
Beagle dogs [8]; dog, in vivo
  Tolerability of all of the other doses: well-tolerated in this
Sprague Dawley rats; 150 and 500 mg/kg/day, 28 days, listed as TT-100
  Findings at 150 and 500 mg/kg/day: Stomach and duodenal hypertrophy/alterations; also recorded: adverse events
Sprague Dawley rats; oral (gavage), once daily for 28 days
  No-effect dose level: 15 mg/kg/day
Beagle dogs [9]; dog, in vivo, po, 300 mg/kg/day
  Tolerability in the repeated dose phase: fairly well tolerated,
Beagle dogs [9]; dogs, single oral (capsule) doses of 600 and 1200 mg/kg
  Clinical findings in the escalation phase: Significant emesis,
[10]
  Safety and tolerability: safe and well tolerated
[11]
  No-effect level: dose of 1000 mg/kg
In vivo [12]
  LD50 at 14 days: > 5000 mg/kg
In vivo [13]; female
  LD50 at 14 days: 1650 mg/kg
In vivo [13]; male
  LD50 at 14 days: 2500 mg/kg
IGF1R [14]; varying PGT substrate, 20 μg/ml NDGA
  Mechanism of action of IGF-1R inhibition: substrate competition
IGF1R [14]; with NDGA (+TT100), 10 nM IGF-1, 20 μM ATP
  Vmax: 2.0 pmol/min
